First: CCOC(=O)C(C#N)=Cc1ccccc1
Second: O=C(O)C(O)Cc1ccccc1 (stereo not drawn)
The melting point of the first is lower: 51 °C for the first, 121 to 125 °C for the second.

Compared with O=S(=O)(Cl)Cc1ccccc1, CNCc1ccccc1 is lower in melting point: 92 °C for the first, -24 °C for the second.

First: CSC(SC)=C(C#N)C(=O)c1cccc(Cl)c1
Second: O=C(Cl)c1cccc(F)c1
The melting point of the first is higher: 88 to 91 °C for the first, -30 °C for the second.

First: Cc1ccccc1C1(C#N)Cc2ccccc2C(=O)O1 (stereo not drawn)
Second: O=C1c2ccccc2C(=O)C1(CN1CCOCC1)c1ccccc1
The melting point of the first is higher: 121 to 123 °C for the first, 88 °C for the second.

Going from CCOP(=S)(OCC)SCn1c(=O)oc2cc(Cl)ccc21 to CCOCOc1ccc(C(=O)Nc2cccc(Cl)c2Cl)cc1, the melting point rises from 47.8 °C to 92.5 °C.

Oc1cc(Cl)c(Cl)c(Cl)c1Cl and COc1c(Cl)c(Cl)c(O)c(Cl)c1Cl are the same in melting point: 116 °C for the first, 116 °C for the second.

First: O=C(O)C(F)(F)C(F)(F)C(F)(F)C(F)(F)C(=O)O
Second: O=C(O)c1ccc(C(F)(F)F)nc1
The melting point of the first is lower: 134 °C for the first, 192 °C for the second.

Compared with COc1ccccc1-c1ccc(C=C2C(=O)NC(=O)NC2=O)o1, COC(=O)C1c2ccccc2C(=O)OC1c1ccc([N+](=O)[O-])cc1 (stereo not drawn) is lower in melting point: 220 °C for the first, 134 °C for the second.

First: N#Cc1cccc(-n2cccc2C=O)c1
Second: Cc1nc(-c2cccc(C#N)c2)cs1
The melting point of the first is higher: 139 to 141 °C for the first, 112 to 114 °C for the second.

First: CCCCCCCCCCC(=O)CC
Second: CCCCCCCOC(=O)CCC
The melting point of the first is higher: 31 °C for the first, -57.5 °C for the second.

Going from CCC(C)(C#N)N=NC(C)(C#N)CC (stereo not drawn) to CCN(CC)c1ccc(N=O)cc1, the melting point rises from 50 °C to 87.5 °C.

First: Sc1nnc(SCCSc2nnc(S)s2)s1
Second: Sc1nnc(-c2ccc(Cl)cc2Cl)n1Cc1ccco1
The melting point of the first is higher: 202 to 204 °C for the first, 158 to 160 °C for the second.

First: O=Cc1ccc(Br)cn1
Second: O=C1c2ccccc2-c2ccc(Br)cc21
The melting point of the first is lower: 95 °C for the first, 143 to 149 °C for the second.

First: O=C(Cc1ccc(Oc2ccccc2)cc1)c1ccccc1
Second: CCOC(C(=O)c1ccccc1)c1ccccc1 (stereo not drawn)
The melting point of the first is lower: 58.3 to 59.9 °C for the first, 62 °C for the second.

First: Cc1c(Br)cc([N+](=O)[O-])cc1Br
Second: Cc1cc(Br)cc(Br)c1O
The melting point of the first is lower: 56 °C for the first, 58 °C for the second.

Compared with Cc1onc(-c2ccccc2)c1I, Fc1cc(Br)ccc1-c1ccccc1 is lower in melting point: 104 to 105 °C for the first, 40 °C for the second.

First: Brc1ccc2c(c1)Oc1ccccc1O2
Second: O=C(Cl)N1c2ccccc2Sc2ccccc21
The melting point of the first is lower: 90 °C for the first, 168 to 172 °C for the second.

First: CC(C(=O)O)c1cccc(C(=O)c2ccccc2)c1 (stereo not drawn)
Second: NC(=C(N)c1ccccc1)c1ccccc1
The melting point of the first is lower: 94 °C for the first, 108 °C for the second.

Going from CC(=O)OC1CCC2C3CCC4CC5(CCC4(C)C3CCC12C)OCCO5 (stereo not drawn) to CC12CCCC1C1CCC3CC(O)CCC3(C)C1CC2 (stereo not drawn), the melting point rises from 144 °C to 148 °C.

Compared with Nc1cc(Cl)cc(C(=O)O)c1Cl, O=C(O)c1nc(Cl)ccc1Cl is lower in melting point: 200 °C for the first, 151 °C for the second.

Compared with COC(=O)c1ccccc1SCC#N, N#Cc1ccccc1C#N is higher in melting point: 121 to 124 °C for the first, 140 °C for the second.

Compared with CSc1cc2c(c3c1CCc1ccccc1-3)c(=O)n(-c1ccccc1)n2C, C/C(=N\CCc1ccccn1)c1c(O)c2ccccc2n(-c2ccccc2)c1=O is higher in melting point: 181 °C for the first, 219 to 220 °C for the second.

First: c1ccc(-c2cc(N3CCCC3)cc(N3CCCC3)c2)cc1
Second: O=C(O)c1cccc(N2CCCC2)c1
The melting point of the first is lower: 174 °C for the first, 215 to 217 °C for the second.

Compared with O=C(c1ccc2ccccc2c1)c1noc(-c2ccc([N+](=O)[O-])cc2)c1S(=O)(=O)c1ccccc1, O=C(c1ccco1)c1noc(-c2ccc(Cl)cc2)c1S(=O)(=O)c1ccccc1 is higher in melting point: 131 °C for the first, 140 °C for the second.

First: CC1(C(=O)O)CCC(O)(CC(O)c2ccccc2)C1(C)C (stereo not drawn)
Second: CN(C(=S)Cl)c1ccccc1
The melting point of the first is higher: 188 °C for the first, 31 to 34 °C for the second.

First: N#CCSc1nc(=O)[nH]c2c1CCCC2
Second: Cc1cc(C(=O)CC#N)c(C)o1
The melting point of the first is higher: 223 to 225 °C for the first, 120 to 122 °C for the second.

Compared with C(=Cc1ccccn1)c1ccccn1, CC(O)(c1ccccc1)c1ccccc1 is lower in melting point: 118 °C for the first, 80 °C for the second.

First: Cn1cnnc1-c1cccc(N)c1
Second: Nc1cccc(-c2cnco2)c1
The melting point of the first is higher: 158 to 159 °C for the first, 92 to 95 °C for the second.

Compared with CC(C)(C)OC(=O)Nc1cc(O)cc(C(=O)O)c1, O=C(O)c1ccc2ncccc2c1 is higher in melting point: 150 to 151 °C for the first, 293 to 294 °C for the second.

Compared with Oc1ccc(C=Cc2cc(O)cc(O)c2)cc1, CC1OC(Oc2c(-c3ccc(O)c(O)c3)oc3cc(O)cc(O)c3c2=O)C(O)C(O)C1O (stereo not drawn) is lower in melting point: 254 °C for the first, 170 °C for the second.

First: CC(=O)OC1CCC2(C)C(CCC3C4CCC(=NNS(=O)(=O)c5ccc(C)cc5)C4(C)CCC32)C1 (stereo not drawn)
Second: CC(C)OC(=O)C1(S(=O)(=O)c2ccc(Cl)cc2)CCCC1
The melting point of the first is higher: 222 °C for the first, 92.5 °C for the second.

First: COC(=O)c1cc(C=O)cn1C
Second: O=C(O)c1cc(Br)c(Br)s1
The melting point of the first is lower: 100 to 101 °C for the first, 230 °C for the second.

Going from COc1ccc2[nH]cc(CCN(C(C)C)C(C)C)c2c1 to Fc1ccc(CBr)c(Cl)c1, the melting point falls from 181 °C to 37 °C.

First: Cc1nn(C)c2ncc(C(=O)O)c(Cl)c12
Second: Cc1nn(C)c(Cl)c1C(=O)O
The melting point of the first is higher: 269 °C for the first, 195 to 198 °C for the second.

First: CN(C)c1ccc(C=C2C3=C(CCCC3)OC3=C2CCCC3)cc1
Second: CC(=O)N(C)c1ccc(N)cc1
The melting point of the first is higher: 164 °C for the first, 70 to 71 °C for the second.

Compared with NC(=NO)c1ccccc1OC(F)(F)F, CC(=O)Nc1ccc(C)c(NS(=O)(=O)C(F)(F)F)c1 is higher in melting point: 99 to 101 °C for the first, 176 °C for the second.

Compared with Cc1cc(C)cc(O[Si]23OCCN(CCO2)CCO3)c1, COC1C=CC2=CCN3CCC4=C(CC(=O)OC4)C23C1 (stereo not drawn) is lower in melting point: 220 °C for the first, 99.5 °C for the second.

First: CCc1c(C)c[nH]c1C
Second: Cc1cc(C)c(O)c(C)c1C
The melting point of the first is lower: 0 °C for the first, 80.5 °C for the second.

First: Fc1ccc(Br)c(CBr)c1
Second: Fc1cc(F)c(Br)c(F)c1
The melting point of the first is higher: 35 °C for the first, 4 °C for the second.

First: BrCC(CBr)CBr
Second: C=C(C)C1CCC(C)=CC1c1c(O)cc(CCCCC)cc1O (stereo not drawn)
The melting point of the first is lower: -32 °C for the first, 67 °C for the second.

First: Cc1nn(C(=O)c2ccncc2)c2c1nnc1ccc(Cl)cc12
Second: O=c1c2cc(F)ccc2nc(-n2cncn2)n1-c1ccc(Cl)cc1Cl
The melting point of the first is lower: 162 °C for the first, 192 °C for the second.

First: NNC(=O)c1ccncc1
Second: NNC(=O)c1ccc(I)cc1
The melting point of the first is lower: 171 °C for the first, 173 to 175 °C for the second.

Compared with CC1=CC(O)c2ccccc21 (stereo not drawn), c1ccc2c(c1)NCCN2 is higher in melting point: 69 °C for the first, 99 °C for the second.

First: O=S(c1ccc(Cl)cc1)c1ccc(Cl)cc1
Second: O=C(Cl)c1cc(-c2ccc(Cl)cc2)oc1C(F)(F)F
The melting point of the first is higher: 140 to 145 °C for the first, 135 to 137 °C for the second.

First: CC(=O)Nc1ccccc1CCN(CCc1ccccc1NC(C)=O)C(C)=O
Second: CCOC(=O)CC(=O)c1ccc([N+](=O)[O-])cc1
The melting point of the first is higher: 188 to 190 °C for the first, 72 °C for the second.

Compared with Cc1ccc(I)cc1[N+](=O)[O-], COC1C(C(O)CO)OC2OC3(CCCCC3)OC21 (stereo not drawn) is higher in melting point: 60 °C for the first, 98 to 102 °C for the second.

O=C(O)C(O)C(O)C(OC1OC(CO)C(O)C(O)C1O)C(O)CO (stereo not drawn) gave a melting point of 113 to 118 °C.

Reference: a melting point compilation (Tetko et al.)
